In PubChem BioAssay (NCI):
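Where inhibition never reached the appropriate level, the endpoint shown equals the highest concentration tested. Otherwise, values were interpolated linearly from a five-concentration, 48-hour dose response in 96-well plates. TGI denotes the concentration required for complete inhibition of growth.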

Legend:
Assay in all cases: NCI anticancer screen, dose series, 48 h
SNB-75 CNS = tested on: SNB-75 CNS
SN12C renal = tested on: SN12C renal
RXF 393 renal = tested on: RXF 393 renal
NCI-H522 lung = tested on: NCI-H522 lung
SK-MEL-2 melanoma = tested on: SK-MEL-2 melanoma
PC-3 prostate = tested on: PC-3 prostate
OVCAR-8 ovarian = tested on: OVCAR-8 ovarian
OVCAR-3 ovarian = tested on: OVCAR-3 ovarian
MCF7 breast = tested on: MCF7 breast
K-562 leukemia = tested on: K-562 leukemia
HCT-15 colon = tested on: HCT-15 colon
SF-295 CNS = tested on: SF-295 CNS
HCT-116 colon = tested on: HCT-116 colon
IGROV1 ovarian = tested on: IGROV1 ovarian
LOX IMVI melanoma = tested on: LOX IMVI melanoma
DU-145 prostate = tested on: DU-145 prostate
SF-539 CNS = tested on: SF-539 CNS
SK-MEL-28 melanoma = tested on: SK-MEL-28 melanoma
M14 melanoma = tested on: M14 melanoma
SK-OV-3 ovarian = tested on: SK-OV-3 ovarian
UACC-257 melanoma = tested on: UACC-257 melanoma
UACC-62 melanoma = tested on: UACC-62 melanoma
NCI-H23 lung = tested on: NCI-H23 lung
NCI-H226 lung = tested on: NCI-H226 lung
HCC-2998 colon = tested on: HCC-2998 colon
SW-620 colon = tested on: SW-620 colon
SK-MEL-5 melanoma = tested on: SK-MEL-5 melanoma
MDA-N = tested on: MDA-N
RPMI-8226 leukemia = tested on: RPMI-8226 leukemia
A549 NSCLC = tested on: A549 NSCLC
COLO 205 colon = tested on: COLO 205 colon
UO-31 renal = tested on: UO-31 renal
KM12 colon = tested on: KM12 colon
BT-549 breast = tested on: BT-549 breast
MOLT-4 leukemia = tested on: MOLT-4 leukemia
HOP-62 NSCLC = tested on: HOP-62 NSCLC
SF-268 CNS = tested on: SF-268 CNS
EKVX NSCLC = tested on: EKVX NSCLC
786-0 renal = tested on: 786-0 renal
CAKI-1 renal = tested on: CAKI-1 renal
CCRF-CEM leukemia = tested on: CCRF-CEM leukemia
MDA-MB-231 breast = tested on: MDA-MB-231 breast
MDA-MB-435 = tested on: MDA-MB-435
HOP-92 NSCLC = tested on: HOP-92 NSCLC
HS 578T breast = tested on: HS 578T breast
TK-10 renal = tested on: TK-10 renal
SNB-19 CNS = tested on: SNB-19 CNS
ACHN renal = tested on: ACHN renal
NCI-H460 lung = tested on: NCI-H460 lung
OVCAR-5 ovarian = tested on: OVCAR-5 ovarian
HL-60(TB) leukemia = tested on: HL-60(TB) leukemia
U251 CNS = tested on: U251 CNS
HT29 colon = tested on: HT29 colon
OVCAR-4 ovarian = tested on: OVCAR-4 ovarian
MALME-3M melanoma = tested on: MALME-3M melanoma
A498 renal = tested on: A498 renal
NCI/ADR-RES ovarian = tested on: NCI/ADR-RES ovarian
SR leukemia = tested on: SR leukemia

Measured: TGI

O=P1(O)c2ccccc2CCc2ccccc21
> 100 µM: SNB-75 CNS | SN12C renal | RXF 393 renal | NCI-H522 lung | SK-MEL-2 melanoma | PC-3 prostate | OVCAR-8 ovarian | OVCAR-3 ovarian | MCF7 breast | K-562 leukemia | HCT-15 colon | SF-295 CNS | HCT-116 colon | IGROV1 ovarian | LOX IMVI melanoma | DU-145 prostate | SF-539 CNS | SK-MEL-28 melanoma | M14 melanoma | SK-OV-3 ovarian | UACC-257 melanoma | UACC-62 melanoma | NCI-H23 lung | NCI-H226 lung | HCC-2998 colon | SW-620 colon | SK-MEL-5 melanoma | MDA-N | RPMI-8226 leukemia | A549 NSCLC | COLO 205 colon | UO-31 renal | KM12 colon | BT-549 breast | MOLT-4 leukemia | HOP-62 NSCLC | SF-268 CNS | EKVX NSCLC | 786-0 renal | CAKI-1 renal | CCRF-CEM leukemia | MDA-MB-231 breast | MDA-MB-435 | HOP-92 NSCLC | HS 578T breast | TK-10 renal | SNB-19 CNS

COc1ccc(C[C@@H](CO)NC2=C(C#N)CCC2)cc1
63.5 µM: KM12 colon
> 100 µM: SN12C renal | RXF 393 renal | ACHN renal | NCI-H460 lung | SK-MEL-2 melanoma | PC-3 prostate | OVCAR-8 ovarian | OVCAR-3 ovarian | MCF7 breast | K-562 leukemia | HCT-15 colon | SF-295 CNS | HCT-116 colon | OVCAR-5 ovarian | LOX IMVI melanoma | DU-145 prostate | SF-539 CNS | SK-MEL-28 melanoma | M14 melanoma | U251 CNS | SK-OV-3 ovarian | UACC-257 melanoma | UACC-62 melanoma | NCI-H23 lung | NCI-H226 lung | HT29 colon | OVCAR-4 ovarian | HCC-2998 colon | SW-620 colon | SK-MEL-5 melanoma | MDA-N | MALME-3M melanoma | A549 NSCLC | COLO 205 colon | UO-31 renal | BT-549 breast | MOLT-4 leukemia | HOP-62 NSCLC | SF-268 CNS | EKVX NSCLC | 786-0 renal | CAKI-1 renal | CCRF-CEM leukemia | MDA-MB-231 breast | MDA-MB-435 | HOP-92 NSCLC | NCI/ADR-RES ovarian | TK-10 renal | SNB-19 CNS
27.8 µM: HL-60(TB) leukemia
93 µM: HS 578T breast
59.6 µM: RPMI-8226 leukemia
95.1 µM: SNB-75 CNS
97.9 µM: A498 renal

O=C(Cn1c2c(c3ccccc31)CCCC2)N1CCCC1
73.3 µM: OVCAR-4 ovarian
87.2 µM: HS 578T breast
> 100 µM: SN12C renal | ACHN renal | NCI-H460 lung | SK-MEL-2 melanoma | PC-3 prostate | OVCAR-8 ovarian | OVCAR-3 ovarian | MCF7 breast | HCT-15 colon | SF-295 CNS | HCT-116 colon | IGROV1 ovarian | OVCAR-5 ovarian | LOX IMVI melanoma | SF-539 CNS | HL-60(TB) leukemia | SK-MEL-28 melanoma | M14 melanoma | SK-OV-3 ovarian | UACC-257 melanoma | UACC-62 melanoma | NCI-H23 lung | SR leukemia | HT29 colon | HCC-2998 colon | SW-620 colon | SK-MEL-5 melanoma | MDA-N | MALME-3M melanoma | RPMI-8226 leukemia | A549 NSCLC | COLO 205 colon | UO-31 renal | BT-549 breast | HOP-62 NSCLC | A498 renal | EKVX NSCLC | 786-0 renal | CAKI-1 renal | MDA-MB-435 | HOP-92 NSCLC | NCI/ADR-RES ovarian | TK-10 renal | SNB-19 CNS

CCN(CC)CCn1nc(N)c2nc3ccccc3nc21
> 100 µM: SNB-75 CNS | SN12C renal | RXF 393 renal | ACHN renal | NCI-H460 lung | NCI-H522 lung | SK-MEL-2 melanoma | PC-3 prostate | OVCAR-8 ovarian | OVCAR-3 ovarian | MCF7 breast | K-562 leukemia | HCT-15 colon | SF-295 CNS | HCT-116 colon | IGROV1 ovarian | OVCAR-5 ovarian | LOX IMVI melanoma | SF-539 CNS | HL-60(TB) leukemia | SK-MEL-28 melanoma | M14 melanoma | U251 CNS | SK-OV-3 ovarian | UACC-257 melanoma | UACC-62 melanoma | NCI-H23 lung | NCI-H226 lung | SR leukemia | HT29 colon | OVCAR-4 ovarian | HCC-2998 colon | SW-620 colon | MDA-N | MALME-3M melanoma | RPMI-8226 leukemia | A549 NSCLC | UO-31 renal | KM12 colon | BT-549 breast | MOLT-4 leukemia | HOP-62 NSCLC | SF-268 CNS | A498 renal | EKVX NSCLC | 786-0 renal | CAKI-1 renal | CCRF-CEM leukemia | MDA-MB-435 | HOP-92 NSCLC | NCI/ADR-RES ovarian | HS 578T breast | TK-10 renal | SNB-19 CNS
